Laboratory results as given in PubChem BioAssay (NCI).
Several values for one entry are separate records, joined by “and”; a condition that tells them apart may be missing. Identical values can stand only once.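 Exposure lasted 48 hours, with cells grown in 96-well plates and compounds tested at five concentrations. GI50: concentration for 50% inhibition of growth. TGI is the concentration that stops growth completely.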

Legend:
Assay in all cases: NCI-60 cell line screen, 48 h
[1] = tested on: SNB-75 CNS
[2] = tested on: UACC-257 melanoma
[3] = tested on: ACHN renal
[4] = tested on: NCI-H226 lung
[5] = tested on: KM12 colon
[6] = tested on: MALME-3M melanoma
[7] = tested on: HT29 colon
[8] = tested on: 786-0 renal
[9] = tested on: A549 NSCLC
[10] = tested on: TK-10 renal

Compound	GI50 [1]	TGI [1]	GI50 [2] [µM]	TGI [2] [µM]	GI50 [3] [µM]	TGI [3] [µM]	GI50 [4] [µM]	TGI [4] [µM]	GI50 [5] [µM]	TGI [5] [µM]	GI50 [6] [µM]	TGI [6] [µM]	GI50 [7] [µM]	TGI [7] [µM]	GI50 [8]	TGI [8]	GI50 [9] [µM]	TGI [9] [µM]	GI50 [10]	TGI [10]
[Cl][Hg][Cl]	18 µM	34.8 µM	17.7	34.9	18	32	25.1	47.7	16.8	31.6	9.16	22.1	16.1	36.3	12.6 µM	25.1 µM	20.2	39.3	17.5 µM	31.5 µM
CCCNNC(=O)/C=C/c1ccc(CNCCc2c(C)[nH]c3ccccc23)cc1	0.0753 µM	2.94 µM	0.0323	0.627	0.0284	0.116	0.0291	0.131	0.0485	0.966	0.015	1.22	0.0123	1.53	0.057 µM	1.2 µM	0.0689	2.02	0.00506 µM	0.133 µM
CCC[CH2][Sn]1([CH2]CCC)[O]CC(Cc2ccccc2)[O]1 (stereo not drawn)	2.76 µM	7.74 µM	1.88	5.27	2.22	4.39	15.4	29.5	3.77	14.4	0.941	3.51	4.43	14.5	1.86 µM	3.73 µM	15.3	28.9	2.64 µM	7.27 µM
O=C1c2ccccc2-c2c1c1c(=O)[nH]c3ccccc3c1n2Cc1ccccc1	15.6 µM	30.1 µM	> 100	> 100	13	25.6	24.5	67.4	> 100	> 100	37.1	> 100	> 100	> 100	33 µM	85 µM	> 100	> 100	15.1 µM	29.2 µM
CC(=O)OCC1OC(n2c(-c3ccc(Cl)cc3)ccc(C#N)c2=S)C(OC(C)=O)C(OC(C)=O)C1OC(C)=O (stereo not drawn)	5.05 µM and 26.9 µM	14 µM and 82.9 µM		> 100		> 100		> 100		> 100		> 100		> 100	11.1 µM and 26.2 µM	55.8 µM and 72.9 µM		> 100	29.4 µM and 62.3 µM	64.1 µM and > 100 µM
CC(=O)[O][Ga]([Cl])[O]C(C)=O	> 100 µM	> 100 µM	> 100	> 100	> 100	> 100	> 100	> 100	> 100	> 100	> 100	> 100	> 100	> 100	> 100 µM	> 100 µM	> 100	> 100	> 100 µM	> 100 µM
Nc1ccccc1C(=O)CC1OC(=O)c2ccccc21 (stereo not drawn)		> 100 µM		> 100		> 100		> 100		> 100		> 100		> 100		> 100 µM		> 100		> 100 µM
CC(C)(C)N=NNc1cn(C2OC(CO)C(O)C2O)c(=O)[nH]c1=O (stereo not drawn)		> 100 µM		> 100		> 100		> 100		> 100		> 100		> 100		> 100 µM		> 100		> 100 µM
CCc1cccc(C)c1NC(=O)c1sc2nc3c(cc2c1N)CCCCC3	1.79 µM	51.5 µM	18.2	> 100	7.45	> 100	14.5	> 100	3.46	> 100	9.11	84.4	3.26	24.7	4.58 µM	> 100 µM	4.14	> 100	13.4 µM	> 100 µM
CC(C(=O)c1ccccc1)C(c1ccccc1)N1CCOCC1 (stereo not drawn)		> 100 µM		> 100		> 100		> 100		> 100		> 100		> 100		> 100 µM		> 100		> 100 µM
CCCN(CCCC(NC(C)=O)C(=O)NCc1ccccc1)C(=O)N(CCCl)N=O (stereo not drawn)		39.8 µM		47.6		37.5		40.1		42.3		39.7		> 66.7		19.1 µM		68.7		83.4 µM
CC(C)CCC(=O)c1ccoc1		> 100 µM		> 100		> 100		> 100		> 100		> 100		> 100		> 100 µM		> 100		> 100 µM
C=C1C(O)C2C(=C(CCc3ccccc3)C13CC3)C(=O)C(C)(CO)C2O (stereo not drawn)	> 100 µM	> 100 µM	> 100	> 100	> 100	> 100	> 100	> 100	> 100	> 100	> 100	> 100	> 100	> 100	> 100 µM	> 100 µM	> 100	> 100	57.4 µM	> 100 µM
O=C(CO[N+](=O)[O-])Nc1ccc(C(=O)/C=C/c2ccc(Cl)cc2)cc1	3.19 µM	17.6 µM	4.33	15.9	3.3	17	5.15	29	1.54	3.1	2.13	6.61	2.36	6.36	11.6 µM	48 µM	5.71	20.6	8.37 µM	25.1 µM
CC[N+](CC)=c1sc2c(s1)C(c1ccc(Cl)cc1)Oc1ccc(Cl)cc1-2 (stereo not drawn)	0.783 µM	10.6 µM	2.33	5.46	11.3	23.9	5.56	33.1	0.456	1.91	1.44	3.88	2.2	5.07	1.92 µM	3.76 µM	1.86	6.9	3.38 µM	6.61 µM
CCOC(=O)N1CCN(c2nc(Nc3cc(C)[nH]n3)c3ccccc3n2)CC1	0.727 µM	5.66 µM	16.3	52.6	0.707	> 100	1.58	10.8	0.479	23.1	21.9	62.2	2.49	21.2	1.95 µM	14.2 µM	7.6	28.8	0.909 µM	35.1 µM
COc1ccc(OC)c(/C(C)=N/NC(N)=S)c1		> 100 µM		> 100		> 100		> 100		> 100		> 100		> 100		> 100 µM		> 100		> 100 µM
